Test results published in article PMC8850433, “CRISPR-assisted rational flux-tuning and arrayed CRISPRi screening of an L-proline exporter for L-proline hyperproduction” (Nature Communications, 2022).

Molecular target: T1, Cgl2622 (Corynebacterium glutamicum, UniProt Q79VD1)
T1 construct: full-length membrane exporter, expressed from plasmid under IPTG-inducible Ptrc in cgl2622-deleted C. glutamicum
Type: cell-based
Conditions: intact C. glutamicum cells, CGXII medium, 20 g/L glucose, 3 mM Thr-Pro peptide, 30 °C; efflux

T1 sequence (Q79VD1 1-489): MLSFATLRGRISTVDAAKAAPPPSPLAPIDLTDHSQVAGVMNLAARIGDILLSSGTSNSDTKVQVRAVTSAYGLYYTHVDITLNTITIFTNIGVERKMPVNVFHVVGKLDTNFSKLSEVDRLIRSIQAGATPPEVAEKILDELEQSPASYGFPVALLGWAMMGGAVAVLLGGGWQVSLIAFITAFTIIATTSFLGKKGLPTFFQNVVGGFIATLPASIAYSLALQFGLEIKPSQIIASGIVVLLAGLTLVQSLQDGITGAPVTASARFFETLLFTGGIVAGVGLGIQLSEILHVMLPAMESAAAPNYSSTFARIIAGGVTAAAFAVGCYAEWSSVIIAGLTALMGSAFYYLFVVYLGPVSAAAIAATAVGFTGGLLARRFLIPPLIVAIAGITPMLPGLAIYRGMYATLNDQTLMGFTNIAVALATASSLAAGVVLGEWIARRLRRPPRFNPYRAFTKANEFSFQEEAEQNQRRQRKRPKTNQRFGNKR

Question: How did the “Thr-Pro peptide uptake and amino acid export assay, deletion vs complementation,” value turn out when `O=C(O)[C@@H]1CCCN1` [L-proline] was run?
Answer: Its value is “These results further verify the function of Cgl2622 as an L-proline exporter”.
